The source of these data is patent USRE48023E1, “Method for treating vascular-related disease” (EYEGENE INC., priority 2006, dated 2020).

In this test the test system is mouse retinal angiogenesis. Kind of test: Mouse model for inducing retinal angiogenesis using oxygen partial pressure, FITC-dextran observation. Format: in vivo. Conditions: for blood leakage (FITC-dextran) / normal angiogenesis (FITC-dextran): administered intraperitoneally after 75% oxygen treatment; for abnormal angiogenesis: treated daily with 1 μg/kg.

On to kistrin, for which the “blood leakage (FITC-dextran)” value is “blood leakage is reduced”, the “normal angiogenesis (FITC-dextran)” value was “normal angiogenesis is induced” and the abnormal angiogenesis entry is on record as “abnormal angiogenesis was not observed”.

With “SEQ ID NO: 2: peptide comprising a RGD sequence; sequence not printed in text (GFGRGDSPCA; Peptide Containing RGD Sequence)”, the “blood leakage (FITC-dextran)” value is listed as “blood leakage is reduced”, the “normal angiogenesis (FITC-dextran)” value is “normal angiogenesis is induced” and the abnormal angiogenesis entry is “abnormal angiogenesis was not observed”.

For “echistatin (ECESGPCCRNCKFLKEGTICKRARGDDMDDYCNGLTCDCPRNPHKGPAT; Peptide containing RGD sequence)”, the “blood leakage (FITC-dextran)” value was “blood leakage is reduced”, the “normal angiogenesis (FITC-dextran)” value is reported as “normal angiogenesis is induced” and the abnormal angiogenesis result is recorded as “abnormal angiogenesis was not observed”.

Consider “SEQ ID NO: 1: peptide comprising a RGD sequence; sequence not printed in text (RGDFV; Peptide Containing RGD Sequence)”, for which the “blood leakage (FITC-dextran)” value is listed as “blood leakage is reduced”, the “normal angiogenesis (FITC-dextran)” value is recorded as “normal angiogenesis is induced” and the abnormal angiogenesis result is listed as “abnormal angiogenesis was not observed”.

As for “SEQ ID NO: 3: polypeptide comprising a sequence RAD, used as the control (RADFV; Peptide Containing RAD Sequence) [reference compound]”, the “normal angiogenesis (FITC-dextran)” value is listed as “normal angiogenesis is not induced”. Further, under “listed as polypeptide comprising a RAD sequence”, the “normal angiogenesis (FITC-dextran)” value was “not also normally formed”.
